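Step 1: Grow cells in 96-well plates. Step 2: Expose to compound for 48 hours at 5 concentrations. Step 3: Interpolate endpoints linearly; if unreached, use highest concentration. The concentration for 50% growth inhibition is given as GI50. TGI: total growth inhibition.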
What was measured:
Assay in all cases: NCI anticancer screen, dose series, 48 h
[1] = tested on: SN12C renal
[2] = tested on: HL-60(TB) leukemia
[3] = tested on: OVCAR-4 ovarian
[4] = tested on: NCI-H460 lung
[5] = tested on: HT29 colon
[6] = tested on: SW-620 colon
[7] = tested on: IGROV1 ovarian
[8] = tested on: SK-MEL-2 melanoma
[9] = tested on: HOP-62 NSCLC

| SMILES | GI50 [1] [µM] | TGI [1] [µM] | GI50 [2] [µM] | TGI [2] [µM] | GI50 [3] [nM] | TGI [3] [µM] | GI50 [4] [µM] | TGI [4] [µM] | GI50 [5] [nM] | TGI [5] [µM] | GI50 [6] [µM] | TGI [6] [µM] | GI50 [7] [µM] | TGI [7] [µM] | GI50 [8] [µM] | TGI [8] [µM] | GI50 [9] [µM] | TGI [9] [µM] |
| --- | --- | --- | --- | --- | --- | --- | --- | --- | --- | --- | --- | --- | --- | --- | --- | --- | --- | --- |
| FC(F)(F)c1ccc(-c2cnc(-n3cc(COCCN4CCCCC4)nn3)nc2NC2CCCCCC2)cc1 | 3.98 | 7.56 | 3.84 | 8.26 | 3110 | 6.35 | 4.57 | 8.84 | 1460 | 5.08 | 3.79 | 7.95 | 3.9 | 10.2 | 4.42 | 8.22 | 4.15 | 8.64 |
| C=C1C(=O)O[C@H]2[C@H]1CC/C(COC(=O)CCSCCC(=O)OC/C1=C/CC[C@@]3(C)O[C@H]3[C@H]3OC(=O)C(=C)[C@@H]3CC1)=C\CC[C@@]1(C)O[C@@H]21 | 1.35 | 3.62 |  |  | 1660 | 3.71 | 1.86 | 4.21 | 496 | 1.73 | 0.556 | 2.02 | 1.3 | 3.25 | 2.18 | 4.88 | 2.36 | 7.94 |
| CCOC(=O)c1c(C)n(Cc2ccccc2)c2c1cc(O)c1[nH]c(Cc3ccccc3)nc12 | 10.5 | 39.8 |  |  | 10900 | > 57.3 | 4.23 | > 100 | 6790 | > 34.4 | 22.1 | > 60 | 15.8 | > 57.7 | 26.7 | > 100 | 17.4 | > 85.6 |
| COc1cc(OC)c2nccc(NCCCN(C)C)c2c1[N+](=O)[O-] |  | > 100 |  | > 100 |  | > 100 |  | > 100 |  | > 100 |  | > 100 |  | > 100 |  | > 100 |  | > 100 |
| COc1cc2c(cc1OC)C(Sc1ccc(SC)cc1)c1c(nc(N)c(C#N)c1N)O2 (configuration not stated) |  |  | 1.51 | 3.59 | 1640 | 3.27 | 2.08 | 4.49 |  |  | 1.92 | 3.97 | 1.23 | 3.24 | 1.48 | 2.9 | 1.78 | 3.26 |
| CCC(c1ccc(OC)cc1)C(CC)c1ccc(O)c(CN2CCN(C)CC2)c1 (configuration not stated) | 5.7 | 20.9 | 2.62 | 5.9 | 7220 | 22.4 | 3.04 | 8.2 | 2010 | 9.06 | 3.15 | 10 | 5.4 | 18 | 2.85 | 6.46 | 11 | 26.2 |
| Cc1cc2cc3ccc(N(C)C)cc3nc2cc1N | 0.411 | 4.54 | 0.805 | 5.09 | 904 | 4.46 | 0.234 | 0.68 | 327 | 1.76 | 0.334 | 1.92 | 0.528 | 2.9 | 0.392 | 1.6 | 0.481 | 2.45 |
| Clc1ccc(-c2csc(Nc3cccc(-c4csc(-c5ccccc5)n4)c3)n2)cc1 | 7.6 | 16.8 | 17.2 | 40.9 |  |  | 10.5 | 27.1 |  |  | 12.2 | 28.8 | 13.5 | 39 | 10.6 | 26.1 | 10.7 | 22.8 |
| COc1ccc(S(=O)(=O)NC2=NCCN2C(=S)SN2CCn3c2nsc3=S)cc1 | 18.2 | 40 |  |  | 18000 | 44.7 | 17.1 | 44.2 | 32400 | > 100 | 14.1 | 27.8 | 30.6 | > 100 | 17.6 | 51.3 | 18.9 | 39.2 |
| Oc1ccc(O)c(-c2cc(-c3ccc(Cl)cc3)nn2-c2ccccc2)c1 | 2.88 | 7.19 | 5.71 | 64.8 |  |  | 3.77 | > 100 |  |  | 3.81 | 18.4 | 9.95 | > 100 | 23.4 | > 100 |  |  |
| NC(=O)c1ccccc1NC(=O)C(=O)Cc1nc2ccccc2[nH]c1=O |  |  |  | > 100 |  | > 100 |  | > 100 |  |  |  | > 100 |  | > 100 |  | > 100 |  | > 100 |
| Cc1cc(Nc2nc(-c3cccnc3)nc3ccccc23)n[nH]1 | 3.21 | > 100 | 3.27 | 49 | 2050 | > 100 | 1.84 | > 100 | 1570 | 11.8 | 1.09 | > 100 | 1.2 | > 40.6 |  |  | 2.68 | > 89.8 |
| CC(=O)OC1=CC2=CC[C@H]3[C@@H]4CCC(=O)[C@@]4(C)CC(=O)[C@]3(S)[C@@]2(C)CC1 |  | > 100 |  |  |  | > 100 |  | 69.8 |  | > 100 |  | > 100 |  | > 100 |  | > 100 |  | > 100 |
| NC1=NC(c2ccc(Cl)cc2)N(c2ccc(S(N)(=O)=O)cc2)C(N)=N1 (configuration not stated) |  | > 100 |  |  |  | > 100 |  | > 100 |  | > 100 |  | > 100 |  | > 100 |  | > 100 |  | > 100 |
| Cc1cn(C2C=CC(CO)O2)c(=O)[nH]c1=O (configuration not stated) |  | > 1000 |  | > 1000 |  | > 1000 |  |  |  | > 1000 |  | > 1000 |  | > 1000 |  | > 1000 |  | > 1000 |
| Nc1cc(O)ccc1N=Nc1ccc(-c2nc3ccccc3[nH]2)cc1 | 53.5 | > 100 | 44.6 | > 100 | > 100000 | > 100 | 10.2 | 35.8 |  |  | 52.9 | > 100 | 19.7 | > 100 | 45.1 | > 100 | > 100 | > 100 |
| Cc1ccc(/C=C2\CN(C(=O)C(Cl)Cl)C/C(=C\c3ccc(C)cc3)C2=O)cc1 |  |  | 0.25 | 1.33 | 322 | > 100 |  |  | 241 |  | 0.0554 | 0.234 | 0.18 | 0.367 | 1.8 | 5.5 | 0.298 | 1.28 |

Reference: PubChem BioAssay (NCI)
